Test results reported in patent US20050106171A1, “METHODS AND COMPOSITIONS FOR TREATING EPILEPSY” (priority 2003, published 2005).

Experiments:
electroshocked mice = experiment: Anti-seizure effect on electroshocked mice; format: in vivo, Kunming mice; conditions: 70 mice per group, dosed twice daily
From the text: Electrodes are placed at the ears of the mice to provide instant stimulation through a strong electric currency. An appropriate electric currency induces an excessive surge of electrical activity in the brain resulting in seizures to occur.
Kunming grade healthy mice, which were 50-70 days old, weighing 18-22 g, were provided by the Institute of Zoology, Chinese Academy of Sciences, Beijing, China. The electroshock device (model GJ-2, manufactured by Medical Instrument Factory, Zhejiang Medical University) was adjusted to an output frequency of 60 Hz and voltage of 125 V. An equal number of male and female mice were selected. The ears of the mice were covered with saturated saline soaked-cotton. The electrodes were then clipped onto the ears of the mice. The mice were electroshocked three times for 0.3 seconds at an interval of 10 seconds. Mice with seizure activity were then divided into four groups, each group containing 70 mice: the test group (AY), the control yeast group (NY), the positive control group (CK2) and negative control group (CK1). Each mouse in the test, control yeast and negative control groups was administered twice daily 0.4 ml of the activated yeast composition, the control yeast composition, and saline, respectively, for 1 week. Each mouse in the positive control group was administered twice daily 15 mg/kg of phenobarbital for 1 week.
On each day, the mice were electroshocked once for 0.3 seconds. The number of mice with seizure activity were monitored as illustrated in Table 2.

[1] = test system: rats induced with cardiazol; experiment: Anti-seizure effect of rats induced with cardiazol; format: in vivo, Wistar rats; conditions: day 7, cardiazol 70 mg/kg subcutaneous 30 minutes after last dose; dosed twice daily for 1 week; 20 rats per group
From the text: Cardiazol induces seizure activity through intensifying excitatory synaptic activity of the brain. At the appropriate dose, cardiazol induces epileptic bursts that occur spontaneously.
An equal number of female and male Wistar rats that were […], weighing 200-220 g were provided by the Chinese Academy of Military Medical Sciences, Beijing, China. The rats were divided into four groups, each containing 20 rats: the test group (AY), the control yeast group (NY), the positive control group (CK2) and negative control group (CK1). Each rat in the test, control yeast and negative control groups was administered twice daily 0.6 ml of the activated yeast composition, the control yeast composition, and saline, respectively, for 1 week. Each mouse in the positive group was administered twice daily 0.04 g/kg (body weight) of phenobarbital (dissolved in 0.6 ml saline) for 1 week.
On day 7, 30 minutes after administering the last dosage of the above compositions, each group was administered by subcutaneous injection 70 mg/kg (body weight) of cardiazol (prepared as a 5% cardiazol solution in saline). The number of seizures occurred, incubation time (time between completion of injection and first seizure) and life span after injection was recorded immediately thereafter as shown in Table 3.

CCC1(c2ccccc2)C(=O)NC(=O)NC1=O [CK2, phenobarbital]
% mice anti-seizure (electroshocked mice; Day 1): 15.7%
No. mice with seizure activity (electroshocked mice; Day 1, intragastric, electroshocked once for 0.3 seconds each day): 59
% mice anti-seizure (electroshocked mice; Day 2): 31.4%
No. mice with seizure activity (electroshocked mice; Day 2): 48
% mice anti-seizure (electroshocked mice; Day 3): 20%
No. mice with seizure activity (electroshocked mice; Day 3): 56
% mice anti-seizure (electroshocked mice; Day 4): 21.4%
No. mice with seizure activity (electroshocked mice; Day 4): 55
% mice anti-seizure (electroshocked mice; Day 5): 17.1%
No. mice with seizure activity (electroshocked mice; Day 5): 58
% mice anti-seizure (electroshocked mice; Day 6): 12.8%
No. mice with seizure activity (electroshocked mice; Day 6): 61
% mice anti-seizure (electroshocked mice; Day 7): 12.9%
No. mice with seizure activity (electroshocked mice; Day 7): 61
incubation time (time between completion of injection and first seizure) [1]: 7.23 ± 5.32 min
life span after injection [1]: 22.76 ± 17.37 min
